# From paper PMC11452043, “In vitro 5-LOX inhibitory and antioxidant potential of isoxazole derivatives” (PLOS ONE, 2024)
# Key:
# [1] = DPPH free radical scavenging (antioxidant) assay; settings: for DPPH percent inhibition: mean ± SEM, n = 3
# Protocol: The previously outlined methodology will be employed to evaluate the compounds’ antioxidant ability, as determined by the processes of the 1,1-diphenyl, 2-picrylhydrazyl (DPPH) free radical. The experimental specimens will be subjected to dilution using different quantities, spanning from 62.5 to 1000 μg/ml, and afterwards introduced into a methanolic solution of DPPH at a concentration of 0.004%. At 517 nm, the absorbance will be determined by a UV spectrophotometer following a 30-minute duration. The scavenging capability of ascorbic acid will be quantified by employing the equation: DPPH=[(A0−A1)/A0]100 Whereas: […]
# Every test was carried out three times, and the median inhibitory dosages (IC50) were determined. The drawing of inhibition graphs was performed by GraphPad Prism software-GraphPAD, San Diego, California, USA.
# The IC50 values were determined from dosage response curve using Microsoft Excel program.
# paw edema = settings: dose dependent manner; cited from earlier work
# COX = settings: cited from earlier work
# tumor growth = settings: in vivo and in vitro; cited from earlier work
# 5-LOX = settings: cited from earlier work
# [2] = target: T1, 5-lipoxygenase (5-LOX) enzyme (Homo sapiens, UniProt P09917); assay: 5-LOX inhibitory assay; assay type: biochemical; settings: for inhibition at 62.5 µg/mL: 62.5 μg/ml; for inhibition at 62.5 µg/mL / inhibition at 125 µg/mL / inhibition at 250 µg/mL / inhibition at 500 µg/mL / inhibition at 1000 µg/mL: mean ± SEM, n = 3, read-out: 5-LOX percent inhibition; for inhibition at 125 µg/mL: 125 μg/ml; for inhibition at 250 µg/mL: 250 μg/ml; for inhibition at 500 µg/mL: 500 μg/ml; for inhibition at 1000 µg/mL: 1000 μg/ml
# T1 sequence (P09917 1-674): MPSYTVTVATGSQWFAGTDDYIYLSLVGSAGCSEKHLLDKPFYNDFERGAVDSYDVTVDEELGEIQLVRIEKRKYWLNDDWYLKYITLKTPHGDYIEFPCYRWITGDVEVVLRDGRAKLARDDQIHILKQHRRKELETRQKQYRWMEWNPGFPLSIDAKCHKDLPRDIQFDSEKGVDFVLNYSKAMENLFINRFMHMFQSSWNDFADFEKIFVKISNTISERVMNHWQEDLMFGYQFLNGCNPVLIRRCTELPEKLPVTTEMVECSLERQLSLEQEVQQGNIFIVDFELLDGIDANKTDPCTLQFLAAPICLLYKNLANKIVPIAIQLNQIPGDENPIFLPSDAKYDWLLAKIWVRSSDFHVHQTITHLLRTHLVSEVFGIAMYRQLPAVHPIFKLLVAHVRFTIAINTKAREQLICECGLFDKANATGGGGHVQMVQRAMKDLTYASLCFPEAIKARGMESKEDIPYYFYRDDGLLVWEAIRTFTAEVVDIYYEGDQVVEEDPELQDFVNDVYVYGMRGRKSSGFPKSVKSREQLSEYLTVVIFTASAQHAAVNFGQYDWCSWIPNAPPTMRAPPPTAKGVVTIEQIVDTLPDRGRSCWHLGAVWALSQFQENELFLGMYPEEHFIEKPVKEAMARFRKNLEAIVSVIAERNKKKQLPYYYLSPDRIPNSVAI
# Protocol: The synthesized Isoxazole derivatives will be investigated for 5-LOX Inhibition studies as per established protocols of Wisastra and his co researchers. In this experiment, residual enzyme potential will be utilized to measure the degree of enzyme inhibition after 10 to 15 minutes of inhibitor’s incubation at 25°C. The reaction involving the conversion of linoleic acid, a substrate of lipoxygenase, into hydroperoxy-octadecadienoate (HPOD) will be employed as a means of quantifying the said reaction. The variation in the rate of absorption will be determined by employing a UV-visible spectrophotometer set at a wavelength of 234 nm. A 50 mM Tris buffer containing 2 mM EDTA and 2 mM CaCl2 was used as the assay buffer in this experiment. The buffer has a pH of 7.5. Following this, a buffer solution was employed to dilute the 5-lipoxygenase (5-LOX) enzyme at a concentration of 20,000 units per millilitre (U/mL) at a ratio of 1:4000. The 100 mM inhibitor was diluted using the test buffer following the administration of dimethyl sulfoxide (DMSO) for its dissolution. The content of linoleic acid was reduced to 20 mg/ml through dilution using ethyl alcohol. To accomplish this, 1 mL of the enzyme solution (1: 4000) will be combined with 100 μL of 2 mM adenosine triphosphate (ATP), 100 μL of the inhibitor (1 mM), and […] of Tris buffer while incubated for 10 min. Following approximately 10 seconds of the substrate and the enzyme mixing together, 10 μL of a 20 mM substrate solution will be added to the mixture. At that point, the changing rate of the substrate will be determined. The response rate will be utilized as a positive control without blockers. In this experiment, montelukast will be utilized as the reference medicine.
IC50 [1],SMILES,DPPH percent inhibition ([1]; 62.5 μg/mL),DPPH percent inhibition ([1]; 125 μg/mL),DPPH percent inhibition ([1]; 250 μg/mL),DPPH percent inhibition ([1]; 500 μg/mL),DPPH percent inhibition ([1]; 1000 μg/mL),inhibition of paw edema (paw edema),activity of COX (COX),inhibition on tumor growth (tumor growth),activity of 5-LOX (5-LOX),IC50 [2],inhibition at 62.5 µg/mL [2],inhibition at 125 µg/mL [2],inhibition at 250 µg/mL [2],inhibition at 500 µg/mL [2],inhibition at 1000 µg/mL [2]
17.9 µM,"O=C1O[C@H]([C@@H](O)CO)C(O)=C1O [Ascorbic acid, reference compound]",77.72±0.59%,79.37±0.71%,82.25±0.72%,87.65±0.42%,92.51±0.69%,–,–,–,–,–,–,–,–,–,–
–,CCO/C(C)=N/c1onc(C)c1C(=O)NCc1ccc(OC)cc1OC [Compound 64],–,–,–,–,–,strongly inhibited,–,–,–,–,–,–,–,–,–
–,COc1cc(-c2cc(-c3sccc3C)no2)cc(OC)c1OC [Compound 65],–,–,–,–,–,–,considerably reduce,excellent inhibition,considerably reduce,–,–,–,–,–,–
18.9 µM,COc1ccc(C2NC(=O)NC(C(F)(F)F)=C2c2cc(-c3ccco3)on2)cc1 (stereo not shown) [Compound C6],73.72±0.64%,78.42±0.66%,83.53±0.45%,88.45±0.49%,91.63±0.55%,–,–,–,–,3.67 µM,81.9 ± 0.96%,85.08 ± 0.47%,88.8 ± 1.26%,91.4 ± 0.2%,94.6 ± 1.12%
–,"CC(C)(O)c1ccccc1CC[C@@H](SCC1(CC(=O)O)CC1)c1cccc(/C=C/c2ccc3ccc(Cl)cc3n2)c1 [Montelukast, reference compound]",–,–,–,–,–,–,–,–,–,21.8 µM,71.8 ± 0.9%,76.4 ± 1.2%,81.6 ± 1.63%,87.5 ± 0.9%,94.1 ± 1.04%
